Experimental data taken from patent US20220396825A1, “METHOD FOR PREPARING […]” (KAO CORPORATION, priority 2019, published 2022).
Where “and” joins values, the source holds several entries; their conditions need not be identical. Identical values can stand only once.

What was measured:
Format in all cases: cell-based, Salmonella typhimurium
[1] = tested on: genome of TA100 strain; test: Mutation frequency in 3-MC-exposed library by sequencing utilizing information on complementary strands
From the text: The flows of a sequencing method and mutation analysis used in Comparative Examples and Examples described later will be described in the following. Fundamentally, the highly accurate sequencing method utilizing information on complementary strands, which is described in Patent Literature 4, was used. Specifically, a library was subjected to sequencing, and read pairs expected to be derived from the same DNA fragment were collected. Then, a consensus read sequence (a consensus read sequence considering complementary strands) was generated among read sequences expected to be derived from two complementary strands (hereinafter, referred to as strand A and strand B) of the DNA fragment. Acquired consensus read sequences considering complementary strands were used for mutation analysis.
(§1) DMSO-exposed cells were prepared with the same procedure as in 1) of Comparative Example 1, and TA100 strain was exposed to 3-methylcholanthrene (3-MC) with the same procedure. In DMSO, 3-MC (produced by Sigma-Aldrich Co. LLC., CASRN.56-49-5) was dissolved. Into test tubes, 100 μL of the 3-MC solution, 500 μL of S9 mix (produced by IEDA TRADING Corporation), and 100 μL of the pre-culture solution for TA100 strain were added (amount of 3-MC: 1000 μg/tube), and the resultants were subjected to shaking culture at 100 rpm in a water bath at 37° C. for 20 minutes (3-MC-exposed cells). Cells were collected from the bacterial suspensions, and DNA was extracted with the same procedure as in 1) of Comparative Example 1.
From DNA derived from the DMSO-exposed cells or the 3-MC-exposed cells, a plurality of samples each of which was to give 60 ng or 100 ng of DNA were prepared, and the samples were each fragmented into pieces having a length of approximately 350 bp on average by using a DNA Shearing System ME220. The fragments of each sample were divided into two groups. For the group without nuclease treatment (nontreatment group), the DNA fragments were suspended in Resuspension buffer attached to the TruSeq for End Repair in the subsequent step in accordance with the recommended protocol to afford 60 μL of eluate. For the group with nuclease treatment (treatment group), the DNA fragments were purified through steps of adsorbing on Sample Purification Beads attached to the TruSeq (hereinafter, also expressed as beads, simply), washing twice with 80% ethanol water, and drying in accordance with the recommended protocol. In the subsequent elution operation, the beads were suspended in distilled water (DW, produced by NIPPON GENE CO., LTD.) to afford 30 μL of DNA eluate containing DNA fragments.
To the DNA eluate obtained in I), 4 μL of 10× Reaction Buffer attached to the S1 nuclease was added. The S1 nuclease was appropriately diluted with 1× Reaction Buffer, 1, 3, 10, 30, 100, or 300 U thereof was added to the DNA eluate, and DW was added thereto to a total volume of 40 μL. For the sample to which 1000 U of the S1 nuclease was to be added, 4.6 μL of 10× Reaction Buffer was added to 30 μL of the DNA eluate obtained by beads purification, and 12 μL of the stock solution of the S1 nuclease was added thereto to a total volume of 46 μL. Each reaction solution with the S1 nuclease was incubated at 30° C. for 30 minutes. Assuming that the whole amount of DNA (60 ng) present at the beginning of library preparation existed in each reaction solution, the numbers of units of the S1 nuclease per 1 ng of DNA were 0.02, 0.05, 0.17, 0.50, 1.67, 5.00, and 16.7 U/ng. For inactivation of the S1 nuclease in each reaction solution, 3 μL of 0.5 M EDTA (pH 8.0) (produced by NIPPON GENE CO., LTD.) was added, and the resultant was incubated at 70° C. for 10 minutes. […]

[2] = tested on: TA100 strain; test: Ames test (pre-incubation method), number of revertant colonies; settings: S9 mix; for Number of revertants: individual plates 1-3; for Number of revertants, Mean: mean of three plates
Experimental: Exposure of the TA100 cell line to DMSO was performed in accordance with the Ames pre-incubation method (Mol. Mech. Mutagen., 455:29-60, 2000, Sci. Rep. 8 (1):9583). TA100 strain was seeded in 2 mL of Nutrient Broth No. 2 (produced by Oxoid Limited), and subjected to shaking culture at 37° C. and 180 rpm for 4 hours to afford pre-culture solution with an OD660 value of 1.0 or higher. Into test tubes, 100 μL of DMSO, 500 μL of S9 mix (produced by IEDA TRADING Corporation), and 100 μL of the pre-culture solution were added, and the resultants were subjected to shaking culture at 100 rpm in a water bath at 37° C. for 20 minutes (DMSO-exposed cells). After shaking culture for 20 minutes, the test tubes each containing a culture solution were taken out of the water bath, and 50 μL of each culture solution was added to 2 mL of Nutrient Broth solution (containing 18.5% S9 mix) aliquoted in advance, and the resultant was further cultured in an incubator at 37° C. and 180 rpm for 14 hours. After the culture, the bacterial suspensions were collected and centrifuged at 7,500 rpm for 5 minutes, and the supernatants were removed to collect the cells. From the DMSO-exposed cells, total DNA was collected by using a DNeasy Blood & Tissue Kit (produced by QIAGEN) in accordance with the recommended protocol. The double-stranded DNA concentration of each DNA sample obtained was measured by using a Qubit3.0 Fluorometer (produced by Thermo Fisher Scientific) with a Qubit™ dsDNA BR Assay Kit attached thereto.
as §1, with “([…]),” for “(amount of 3-MC: 1000 μg/tube),”
For the Ames test, a bacterial suspension exposed to 3-MC under the above-described conditions was prepared. Thereto, 2 mL of top agar (containing 1% NaCl, 1% agar, 0.05 mM histidine, and 0.05 mM biotin) warmed to 45° C. was added and the resultant was stirred by using a Vortex, and poured onto a minimal glucose agar medium (Tesmedia® AN; produced by Oriental Yeast Co., Ltd.) to form a layer. The resulting plate was subjected to culturing at 37° C. for 48 hours, and the number of colonies observed was counted.

[3] = tested on: genome of TA100 strain; test: Mutation frequency in 3-MC-exposed library by sequencing utilizing information on complementary strands; remark: listed apart in the source

In the case of Cc1ccc2cc3c(ccc4ccccc43)c3c2c1CC3 [3-MC, 3-methylcholanthrene], the “SN ratio determined from mean values of GC→TA mutation frequency” value ([1]; 3-MC vs DMSO control, without MBN treatment, each n=3) is reported as 1.61, the “mean value of mutation frequency for GC→TA” value ([1]; 3-MC-exposed, without MBN treatment, n=3) is reported as 0.176×10^−6 and the “GC → TA mutation frequency increase rate (3MC/DMSO control), SN ratio” value ([1]; MBN experiment, MBN 0 U/ng (nontreatment)) is reported as 2.04. For the same compound, the “GC → TA mutation frequency increase rate (3MC/DMSO control), SN ratio” value ([1]; RecJf experiment, RecJf 0 U/ng (nontreatment)) was 2.04, the “GC → TA mutation frequency increase rate (3MC/DMSO control), SN ratio” value ([1]; library S1 nuclease 0 U/ng (nontreatment)) was 1.27 and the “GC → TA mutation frequency increase rate (3MC/DMSO control), SN ratio” value ([1]; library treated with MBN 0.03 U/ng) was 1.60. For the same compound, the “GC → TA mutation frequency increase rate (3MC/DMSO control), SN ratio” value ([1]; library treated with MBN 0.10 U/ng) was 1.81, the “GC → TA mutation frequency increase rate (3MC/DMSO control), SN ratio” value ([1]; library treated with MBN 0.30 U/ng) was 1.34 and the “GC → TA mutation frequency increase rate (3MC/DMSO control), SN ratio” value ([1]; library treated with MBN 1.00 U/ng) was 1.92. For the same compound, the “GC → TA mutation frequency increase rate (3MC/DMSO control), SN ratio” value ([1]; library treated with RecJf 1.00 U/ng) was 1.94, the “GC → TA mutation frequency increase rate (3MC/DMSO control), SN ratio” value ([1]; library treated with S1 nuclease 0.02 U/ng) was 2.1 and the “GC → TA mutation frequency increase rate (3MC/DMSO control), SN ratio” value ([1]; library treated with S1 nuclease 0.05 U/ng) was 1.97. For the same compound, the “GC → TA mutation frequency increase rate (3MC/DMSO control), SN ratio” value ([1]; library treated with S1 nuclease 0.17 U/ng) was 2.72, the “GC → TA mutation frequency increase rate (3MC/DMSO control), SN ratio” value ([1]; library treated with S1 nuclease 0.50 U/ng) was 3.75 and the “GC → TA mutation frequency increase rate (3MC/DMSO control), SN ratio” value ([1]; library treated with S1 nuclease 1.67 U/ng) was 3.35. The “GC → TA mutation frequency increase rate (3MC/DMSO control), SN ratio” value ([1]; library treated with S1 nuclease 5.00 U/ng) was 1.63, the “GC → TA mutation frequency increase rate (3MC/DMSO control), SN ratio” value ([1]; library treated with S1 nuclease 16.7 U/ng) was 3.59 and the Number of revertants ([2]; 3-MC 10 μg/plate) was 887 and 881 and 1279. The “Number of revertants, Mean” value ([2]; 3-MC 10 μg/plate) was 1016, the Number of revertants ([2]; 3-MC 20 μg/plate) was 1539 and 1484 and 1509 and the “Number of revertants, Mean” value ([2]; 3-MC 20 μg/plate) was 1511. For the same compound, the Number of revertants ([2]; 3-MC 100 μg/plate) was 1519 and 1539 and 1797, the “Number of revertants, Mean” value ([2]; 3-MC 100 μg/plate) was 1618 and the “GC → TA mutation frequency increase rate (3MC/DMSO control), SN ratio” value ([3]; library treated with RecJf 0.03 U/ng) was 1.48. For the same compound, the “GC → TA mutation frequency increase rate (3MC/DMSO control), SN ratio” value ([3]; library treated with RecJf 0.10 U/ng) was 2.14 and the “GC → TA mutation frequency increase rate (3MC/DMSO control), SN ratio” value ([3]; library treated with RecJf 0.30 U/ng) was 1.68.
